From patent US12005056B2, “Centrally-active ghrelin agonist and medical uses thereof” (Helsinn Healthcare SA, priority 2018, dated 2024)
“Also recorded” adds a separate entry of the source. Like-named read-outs stand apart in the source and are kept apart here.

Columns and labels:
[1] = tested on: cisplatin-treated Wistar rats; assay: Cisplatin study (body weight, food intake, von Frey testing); type: in vivo; conditions: for Body Weight / Allodynia: Cisplatin 0.5 mg/kg (i.p.) for three days
Method: Compound A was made as a suspension in 0.5% carboxymethylcellulose solution in dosing volumes of 1 and 10 mL/kg for rats and mice respectively and dosed orally at 3, 10 or 30 mg/kg. […] Bortezomib was prepared in 10% Tween 80, 10% EtOH 100% and 80% saline solution and injected i.v. (1 mL/kg) at 0.2 mg/kg.
Fifty male Wistar rats weighing 250-300 g at start of experiment were randomly divided into 5 groups of 10 rats each. Group 1 received daily Compound A vehicle (p.o.) for 6 days and cisplatin vehicle (i.p.) for 3 days. Group 2 received Compound A vehicle (p.o) and 0.5 mg/kg cisplatin (i.p.) for 3 days followed by Compound A vehicle for 3 additional days. Group 3 received daily 3 mg/kg Compound A (p.o) and 0.5 mg/kg cisplatin (i.p.) for 3 days followed by 3 mg/kg Compound A for an additional 3 days. Group 4 received 10 mg/kg Compound A (p.o) and 0.5 mg/kg cisplatin (i.p.) for 3 days followed by 10 mg/kg Compound A for an additional 3 days. Group 5 received daily 30 mg/kg Compound A (p.o.) and 0.5 mg/kg cisplatin (i.p.) for 3 days followed by 30 mg/kg Compound A for an additional 3 days. In each case, cisplatin or cisplatin vehicle was dosed 30 min after Compound A or Compound A vehicle, which was dosed 1 hour prior to von Frey filament testing. Individual body weights and 24 h food intake were measured daily from just prior to initiation of dosing.
In the cisplatin study, rats were individually housed and acclimated to handling and to the Von Frey testing apparatus for several days prior to start of the experiment. Baseline measurements were obtained prior to dosing. Behavioral testing was conducted following procedures previously described (28). Each filament was tested 5 times and the test continued until 3 withdrawal responses to a particular filament were recorded.

[2] = rat, in vivo
[3] = dog, in vivo
[4] = tested on: bortezomib-treated Wistar rats; assay: Bortezomib study, prevention paradigm; type: in vivo; conditions: for Allodynia / Body Weight / DRG/nerve pathology / IENFD / NCS: Bortezomib Preventive setting, 0.2 mg/kg (i.v.) 3 times/week for 8 weeks
[5] = Method: The stability of Compound A was followed by HPLC analysis. […] Additionally a stability study was performed over 3 years on industrial batch of dried material.
[6] = tested on: oxaliplatin-treated Balb/C mice; conditions: for Body Weight / IENFD / NCS: Oxaliplatin 6 mg/kg (i.p.) twice weekly for 4 weeks
proteasome activity = assay: Proteasome inhibition study in bortezomib-treated rats; type: in vivo, Wistar rats; conditions: co-administration at different doses, preventive or therapeutic settings
Method: At baseline and after 8 weeks of treatment, caudal and digital nerve conduction and potential amplitude studies, behavioral tests (Dynamic) and blood collection to study proteasome inhibition were performed. After 8 weeks of treatment, tissue samples (sciatic and caudal nerves, DRG and foot pads) were collected and analyzed to study morphological parameters and intraepidermal nerve fibre density (IENFD).
At baseline and after 8 weeks of treatment, caudal and digital nerve conduction and potential amplitude studies and blood collection to study proteasome inhibition were performed. […] After 8 weeks of treatment, sciatic nerves, caudal nerves, DRG and foot pads were collected from all animals and analyzed to study morphological parameters and IENFDs.

[7] = crude wet material, batch #01, 2-8° C., t = 0
[8] = crude wet material, batch #01, 2-8° C., t = 8 days
[9] = crude wet material, batch #01, 2-8° C., t = 30 days
[10] = crude wet material, batch #02, rt under air, t = 0
[11] = crude wet material, batch #02, rt under air, t = 24 days
[12] = during drying at 60° C., t = 74 hours

3-(1-(2,3-dichloro-4-methoxyphenyl) ethyl)-1-methyl-1-(1,3,3-trimethylpiperidin-4-yl)urea monohydrochloride salt [Compound A]
Body Weight ([1]; Compound A dose 3): +
Allodynia ([1]; Compound A dose 10): +
Body Weight ([1]; Compound A dose 10): +
Allodynia ([1]; Compound A dose 30): +
Body Weight ([1]; Compound A dose 30): +
cisplatin-induced mechanical hyperalgesia ([1]; Compound A 3 mg/kg p.o., monohydrochloride salt, 3 mg/kg): no significant effect and not
paw withdrawal thresholds compared to vehicle-treated rats ([1]; Compound A 30 mg/kg, Days 3 thru 5): significantly increased
overall food intake compared to cisplatin alone ([1]; Compound A 3, 10 and 30 mg/kg p.o.): increased
body weight compared to cisplatin alone ([1]; Compound A 3, 10 and 30 mg/kg p.o., monohydrochloride salt): increased; also recorded: improved
food intake compared to cisplatin alone ([1]; Compound A 10 and 30 mg/kg p.o. (FIG. 1B)): improved
cisplatin-induced mechanical hyperalgesia ([1]; Compound A 10 and 30 mg/kg p.o., monohydrochloride salt): significantly reduced; also recorded: significantly improved
F [2]: 70.6%
2 hr brain concentration ([2]; iv): 172. ng · g
2 hr plasma concentration ([2]; iv): 119.3 ng/mL
AUC (0-t) ([2]; iv, 3 mg/kg): 701.5 ng·h/mL
Cmax ([2]; iv, 3 mg/kg): 468.4 ng/mL
T1/2 z ([2]; iv, 3 mg/kg): 1.6 h
Vz/F ([2]; iv, 3 mg/kg): 9.9 L/kg
AUC (0-t) ([2]; po, 3 mg/kg): 495.3 ng·h/mL
Cmax ([2]; po, 3 mg/kg): 58.6 ng/mL
T1/2 z ([2]; po, 3 mg/kg): 12.7 h
Vz/F ([2]; po, 3 mg/kg): 38.6 L/kg
tmax ([2]; po, 3 mg/kg): 3.3 h
F [3]: 31.2%
T1/2 z ([3]; iv, 1 mg/kg): 1.6 h
Vz/F ([3]; iv, 1 mg/kg): 3.7 L/kg
T1/2 z ([3]; po, 2 mg/kg): 1.6 h
Vz/F ([3]; po, 2 mg/kg): 13.0 L/kg
Allodynia ([4]; Compound A dose 3): +
Body Weight ([4]; Compound A dose 3): +/−
DRG/nerve pathology ([4]; Compound A dose 3): −
IENFD ([4]; Compound A dose 3): +
NCS ([4]; Compound A dose 3): −
Allodynia ([4]; Compound A dose 10): +
Body Weight ([4]; Compound A dose 10): +/−
DRG/nerve pathology ([4]; Compound A dose 10): +/−
IENFD ([4]; Compound A dose 10): +
NCS ([4]; Compound A dose 10): −
Allodynia ([4]; Compound A dose 30): +
Body Weight ([4]; Compound A dose 30): +/−
DRG/nerve pathology ([4]; Compound A dose 30): +/−
IENFD ([4]; Compound A dose 30): +
NCS ([4]; Compound A dose 30): +/−
mild axonal changes in the sciatic nerve ([4]; different doses): did not alter these changes
DRG sensory neuron degeneration and satellite cell vacuolization ([4]; preventive setting): incomplete protection
digital NCV vs CTRL ([4]; preventive setting, Compound A 30 mg/kg): no alteration
digital NCV vs CTRL ([4]; preventive setting, Compound A 3 and 10 mg/kg): statistically significant reduction
bortezomib-induced reduction in IENFD ([4]; preventive setting, all doses): significantly prevented
allodynia vs CTRL (mechanical threshold) ([4]; preventive setting, all doses, end of treatment): did not show allodynia
caudal NCV and caudal potential amplitude vs CTRL ([4]; preventive setting, all doses, monohydrochloride salt): statistically significant reduction
digital potential amplitude vs CTRL ([4]; preventive setting, all groups, end of treatment): No changes
caudal nerve pathological changes ([4]; preventive setting, different doses): mild, not dose-dependent reduction in these pathological changes
body weight difference vs. CTRL and bortezomib groups ([4]; preventive study, at the end of treatment): not significant
body weight vs. CTRL and bortezomib groups ([4]; preventive study, different doses, first few weeks until day 21): significant increase in body weight
Compound A, HPLC results [5, 7]: 99.60%
Impurity RRT 0.97, HPLC results [5, 7]: 0.40%
Compound A, HPLC results [5, 8]: 99.70%
Impurity RRT 0.97, HPLC results [5, 8]: 0.29%
Compound A, HPLC results [5, 9]: 99.75%
Impurity RRT 0.97, HPLC results [5, 9]: 0.25%
Compound A, HPLC results [5, 10]: 99.74%
Impurity RRT 0.97, HPLC results [5, 10]: 0.24%
Compound A, HPLC results [5, 11]: 99.73%
Impurity RRT 0.97, HPLC results [5, 11]: 0.27%
Compound A, HPLC results ([5]; during drying at 60° C., t = 0): 99.83%
Impurity RRT 0.97, HPLC results ([5]; during drying at 60° C., t = 0): 0.17%
Compound A, HPLC results [5, 12]: 99.78%
Impurity RRT 0.97, HPLC results [5, 12]: 0.17%
improvement of digital potential amplitude vs. oxaliplatin-treated mice ([6]; Compound A 30 mg/kg): 33+/−9%
digital potential amplitude ([6]; Compound A 30 mg/kg (FIG. 2B)): able to normalize
oxaliplatin-induced decrease in digital and caudal NCV ([6]; Compound A 10 and 30 mg/kg): significantly prevented
IENFD in footpads vs. vehicle treated mouse values ([6]; Compound A 10 and 30 mg/kg, monohydrochloride salt): completely normalized; also recorded: completely normalised
weight loss compared to oxaliplatin treated mice ([6]; Compound A 10 or 30 mg/kg): less weight loss
Body Weight ([6]; Compound A dose 10): +
IENFD ([6]; Compound A dose 10): +
NCS ([6]; Compound A dose 10): +
Body Weight ([6]; Compound A dose 30): +
IENFD ([6]; Compound A dose 30): +
NCS ([6]; Compound A dose 30): +
degenerative changes in DRG and sciatic nerve ([6]; mouse, in vivo): did not cause any degenerative changes
bortezomib-induced proteasome inhibition (proteasome activity): did not impair
